pIC50: −log10 of the molar value.
Target: human chemokine receptor CXCR7 (Homo sapiens (Human), UniProt P25106)
Assay: Tango CXCR7-bla U2OS beta-arrestin recruitment assay (beta-lactamase reporter, FRET), antagonism of CXCL12/SDF1-α;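 note: compounds preincubated 15 min before CXCL12 addition, then 22 h at 37 °C, FRET emission ratio read with CCF4-AM substrate after 2 h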
Format: cell-based
Settings: antagonistic effect on CXCR7; Tango CXCR7-bla U2OS cells, CXCL12/SDF1-α at its EC80

human chemokine receptor CXCR7, sequence (P25106 whole entry): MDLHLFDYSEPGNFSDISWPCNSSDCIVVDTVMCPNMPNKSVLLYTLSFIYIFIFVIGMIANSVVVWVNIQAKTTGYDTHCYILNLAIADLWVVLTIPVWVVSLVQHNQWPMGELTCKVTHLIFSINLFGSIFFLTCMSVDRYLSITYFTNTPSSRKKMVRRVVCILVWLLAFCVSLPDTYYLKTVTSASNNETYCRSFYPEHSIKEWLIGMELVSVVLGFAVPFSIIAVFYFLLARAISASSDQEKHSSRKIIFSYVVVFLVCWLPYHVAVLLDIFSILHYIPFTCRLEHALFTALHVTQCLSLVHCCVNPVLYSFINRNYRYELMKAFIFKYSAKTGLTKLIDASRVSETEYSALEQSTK

Row | SMILES | pIC50
1 | CC(C)(CF)NC(=O)[C@@H]1CN(C2CCCCC2)CC[C@H]1NC(=O)c1cc(-c2ccc(F)cc2F)on1 (racemic) [Example 1.079, rac-(3R*,4R*)-1-Cyclohexyl-4-{[5-(2,4-difluoro-phenyl)-isoxazole-3-carbonyl]-amino}-piperidine-3-carboxylic acid (2-fluoro-1,1-dimethyl-ethyl)-amide] | 6.29
2 | CC(C)(CO)NC(=O)[C@@H]1CN(C2CCCCC2)CC[C@H]1NC(=O)c1cc(-c2ccc(F)cc2F)on1 (racemic) [Example 1.088, rac-(3R*,4R*)-1-Cyclohexyl-4-{[5-(2,4-difluoro-phenyl)-isoxazole-3-carbonyl]-amino}-piperidine-3-carboxylic acid (2-hydroxy-1,1-dimethyl-ethyl)-amide] | 6.61
3 | CN(C)C(=O)[C@@H]1CN(C2CCCCC2)CC[C@H]1NC(=O)c1cn(-c2ccc(F)cc2F)nn1 (racemic) [Example 1.095, rac-(3R*,4R*)-1-Cyclohexyl-4-{[1-(2,4-difluoro-phenyl)-1H-[1,2,3]triazole-4-carbonyl]-amino}-piperidine-3-carboxylic acid dimethylamide] | 6.60
4 | CN(C)C(=O)[C@@H]1CN(C2CCCC2)CC[C@H]1NC(=O)c1cn(-c2ccc(F)cc2F)nn1 (racemic) [Example 1.096, rac-(3R*,4R*)-1-Cyclopentyl-4-{[1-(2,4-difluoro-phenyl)-1H-[1,2,3]triazole-4-carbonyl]-amino}-piperidine-3-carboxylic acid dimethylamide] | 6.18
5 | CN(C)C(=O)[C@@H]1CN(CC2CC2)CC[C@H]1NC(=O)c1cn(-c2ccc(F)cc2F)nn1 (racemic) [Example 1.097, rac-(3R*,4R*)-1-Cyclopropylmethyl-4-{[1-(2,4-difluoro-phenyl)-1H-[1,2,3]triazole-4-carbonyl]-amino}-piperidine-3-carboxylic acid dimethylamide] | 6.35
6 | CN(C)C(=O)[C@@H]1CN(C2CCCC2)CC[C@H]1NC(=O)c1cc(-c2ccc(F)cc2F)no1 (racemic) [Example 1.103, rac-(3R*,4R*)-1-Cyclopentyl-4-{[3-(2,4-difluoro-phenyl)-isoxazole-5-carbonyl]-amino}-piperidine-3-carboxylic acid dimethylamide] | 6.56
7 | O=C(N[C@@H]1CCN(C2CCCCC2)C[C@H]1C(=O)N1CCC1)c1cn(-c2ccc(F)cc2F)nn1 (racemic) [Example 1.104, rac-1-(2,4-Difluoro-phenyl)-1H-[1,2,3]triazole-4-carboxylic acid [(3R*,4R*)-3-(azetidine-1-carbonyl)-1-cyclohexyl-piperidin-4-yl]-amide] | 6.02
8 | O=C(N[C@@H]1CCN(C2CCCCC2)C[C@H]1C(=O)N1CCC1)c1cc(-c2c(F)cc(F)cc2F)on1 (racemic) [Example 1.105, rac-5-(2,4,6-Trifluoro-phenyl)-isoxazole-3-carboxylic acid [(3R*,4R*)-3-(azetidine-1-carbonyl)-1-cyclohexyl-piperidin-4-yl]-amide] | 6.37

These reach a higher pIC50. Values come first.

Row | pIC50 | SMILES
9 | 6.93 | CC(C)(CS(C)(=O)=O)NC(=O)[C@@H]1CN(C2CCCCC2)CC[C@H]1NC(=O)c1cc(-c2ccc(F)cc2F)on1 (racemic) [Example 1.081, rac-(3R*,4R*)-1-Cyclohexyl-4-{[5-(2,4-difluoro-phenyl)-isoxazole-3-carbonyl]-amino}-piperidine-3-carboxylic acid (2-methanesulfonyl-1,1-dimethyl-ethyl)-amide]
10 | 6.88 | CN(C)C(=O)[C@@H]1CN(C2CCCC2)CC[C@H]1NC(=O)c1cc(-c2c(F)cc(F)cc2F)on1 (racemic) [Example 1.099, rac-(3R*,4R*)-1-Cyclopentyl-4-{[5-(2,4,6-trifluoro-phenyl)-isoxazole-3-carbonyl]-amino}-piperidine-3-carboxylic acid dimethylamide]
11 | 6.95 | CN(C)C(=O)[C@@H]1CN(C2CCCCC2)CC[C@H]1NC(=O)c1cc(-c2ccc(F)cc2F)no1 (racemic) [Example 1.102, rac-(3R*,4R*)-1-Cyclohexyl-4-{[3-(2,4-difluoro-phenyl)-isoxazole-5-carbonyl]-amino}-piperidine-3-carboxylic acid dimethylamide]
